This is an account of results in paper PMC7972453, “The allosteric modulation of complement C5 by knob domain peptides” (eLife, 2021).

Like-named read-outs stand apart in the source and are kept apart here. Bridges are numbered along the chain shown (N, C = ends). Where no end group is shown, it is not given here.

The subject of test [1] is alternative pathway C5b deposition (complement C5). Kind of test: Alternative pathway C5b deposition ELISA. Type of test: biochemical, human. The settings on record: n=3 (K8: n=5; K92: n=4), ND* = Not detected. The text has this: Figure 1. Functional modulation of C5 via knob domain peptides. […] Following activation of C1q via antibody Fc, C4 and C2 are cleaved and form C4bC2a (the CP C3 convertase) which cleaves C3 into C3a (not shown) and C3b. At high C3b concentrations, C4bC2aC3b (the CP […]) forms and cleaves C5 into C5a and C5b. C5b associates with C6 and forms the membrane attack complex (MAC) with C7, C8, and multiple copies of C9. […] In the presence of factor B and factor D, C3bBb (the AP C3 convertase) generates additional C3b, prompting formation of C3bBbC3b (the AP C5 convertase), which cleaves C5 into C5a and C5b, driving MAC formation. CP-driven ELISAs (C) and AP-driven ELISAs (D) are shown. For both pathways, the inhibition of C3d (the surface-associated domain of C3b, which is upstream of C5 inhibition), C5a release, and C5b neo-epitope formation and C9 deposition were tracked within the MAC. […] For the AP assays, 5% serum (v/v) gives a putative C5 concentration of 20 nM. For the CP assays, 1% serum (v/v) gives a putative C5 concentration of 4 nM, based on a reported C5 serum concentration of 397 nM/75 µg/mL ([Sjöholm, 1975]).
For the C5b ELISA, assays were run using the CP and AP Complement functional ELISA kits (Svar Life Science, Malmö, Sweden). For sample preparation, serum was diluted as per the respective protocol for the CP and AP assays. […]
(ELISA stands for enzyme-linked immunosorbent assay.)

Test [2] concerns alternative pathway mediated C5a release (complement C5). Description: Inhibition of alternative pathway mediated C5a release (ELISA). It is filed as biochemical, human. The following applies: AP C5a release; n=3 (K8: n=4); ND* = Not detected. How it is done:
For the C5b ELISA, assays were run using the CP and AP Complement functional ELISA kits (Svar Life Science, Malmö, Sweden). For sample preparation, serum was diluted as per the respective protocol for the CP and AP assays. Serial dilutions of peptides were prepared and allowed to incubate with serum for 15 min at room temperature prior to plating.
For the C5a ELISA, assays were run using the Complement C5a Human ELISA Kit (Invitrogen, Renfrew, UK). For sample preparation, at the end of the 37°C incubation of the serum/peptide samples on the C5b ELISA plate, 50 µL of the diluted, activated serum was transferred to a C5a ELISA plate containing 50 µL/well of assay buffer. All subsequent experimental steps were performed as described in the protocol.
Table 1.4. Inhibition of alternative pathway mediated C5a release.
Data from n=3, unless otherwise stated

Test [3] addresses human C5b-6 (Homo sapiens, UniProt P01031+P13671). Kind of test: SPR single-cycle kinetics, binding to C5b-6. Set-up: Upon cleavage of C5a, the remaining domains of the α-chain undergo a substantial conformational change; purchased Complement Technologies, Tyler, TX. How it is done: On a Biacore 8K (GE Healthcare, Amersham, UK), human C5b was immobilised on a CM5 chip (GE Healthcare, Amersham, UK). Flow cells were activated using a standard immobilisation protocol: EDC/NHS was mixed at 1:1 ratio (flow rate, 10 µL/min; contact time, 30 s). C5b, at 1 µg/mL, or C5b-6 (Complement Technologies, Tyler, TX), at 2 µg/mL, in pH 4.5 sodium acetate buffer, were immobilised on flow cell two only (flow rate, 10 µL/min; contact time, 420 s). Finally, ethanolamine was applied to both flow cells (flow rate, 10 µL/min; contact time, 420 s). A final immobilisation level of 500–700 RUs was obtained for C5b and 1000–1150 RUs were obtained for C5b-6. Single-cycle kinetics were measured using a seven-point, threefold serial dilution (spanning a range of 1 µM to 1.4 nM) in HBS-EP buffer (GE Healthcare, Amersham, UK). A high flow rate of 40 µL/min was used, with a contact time of 300 s and a dissociation time of 2700 s. Binding to the reference surface was subtracted, and the data were fitted to a single-site binding model using Biacore evaluation software. All sensorgrams were inspected for evidence of mass transport limitation using the flow rate-independent component of the mass transfer constant (tc).
Table 4.2. SPR single-cycle kinetics of knob domains binding to human C5b-6.

Chain of human C5b-6 (P01031 752-1676 limits assumed): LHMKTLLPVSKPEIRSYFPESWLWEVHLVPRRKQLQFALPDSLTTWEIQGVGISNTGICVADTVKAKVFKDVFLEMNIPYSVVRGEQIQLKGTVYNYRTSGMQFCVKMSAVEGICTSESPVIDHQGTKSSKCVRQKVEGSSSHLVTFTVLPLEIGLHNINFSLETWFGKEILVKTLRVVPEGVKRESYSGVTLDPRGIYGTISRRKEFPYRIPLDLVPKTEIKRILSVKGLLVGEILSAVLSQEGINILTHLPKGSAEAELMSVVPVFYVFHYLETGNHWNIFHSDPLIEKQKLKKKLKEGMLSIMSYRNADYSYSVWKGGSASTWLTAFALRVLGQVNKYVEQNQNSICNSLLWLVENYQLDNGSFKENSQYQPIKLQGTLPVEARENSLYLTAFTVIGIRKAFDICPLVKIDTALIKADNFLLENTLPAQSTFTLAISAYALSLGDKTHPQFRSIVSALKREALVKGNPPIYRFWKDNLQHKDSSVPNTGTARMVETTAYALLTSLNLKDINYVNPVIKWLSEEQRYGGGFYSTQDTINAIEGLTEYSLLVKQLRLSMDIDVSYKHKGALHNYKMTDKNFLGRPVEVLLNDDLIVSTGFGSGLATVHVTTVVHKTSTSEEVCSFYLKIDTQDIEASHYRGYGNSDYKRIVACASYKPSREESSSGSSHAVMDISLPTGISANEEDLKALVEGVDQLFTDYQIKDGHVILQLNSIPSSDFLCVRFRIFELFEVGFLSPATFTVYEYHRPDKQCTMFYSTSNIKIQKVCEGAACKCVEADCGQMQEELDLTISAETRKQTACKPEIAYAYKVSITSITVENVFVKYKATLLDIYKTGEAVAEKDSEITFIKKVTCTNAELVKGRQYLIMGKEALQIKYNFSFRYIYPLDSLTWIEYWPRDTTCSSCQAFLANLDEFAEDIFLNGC
Chain of human C5b-6 (P01031 19-673 limits assumed): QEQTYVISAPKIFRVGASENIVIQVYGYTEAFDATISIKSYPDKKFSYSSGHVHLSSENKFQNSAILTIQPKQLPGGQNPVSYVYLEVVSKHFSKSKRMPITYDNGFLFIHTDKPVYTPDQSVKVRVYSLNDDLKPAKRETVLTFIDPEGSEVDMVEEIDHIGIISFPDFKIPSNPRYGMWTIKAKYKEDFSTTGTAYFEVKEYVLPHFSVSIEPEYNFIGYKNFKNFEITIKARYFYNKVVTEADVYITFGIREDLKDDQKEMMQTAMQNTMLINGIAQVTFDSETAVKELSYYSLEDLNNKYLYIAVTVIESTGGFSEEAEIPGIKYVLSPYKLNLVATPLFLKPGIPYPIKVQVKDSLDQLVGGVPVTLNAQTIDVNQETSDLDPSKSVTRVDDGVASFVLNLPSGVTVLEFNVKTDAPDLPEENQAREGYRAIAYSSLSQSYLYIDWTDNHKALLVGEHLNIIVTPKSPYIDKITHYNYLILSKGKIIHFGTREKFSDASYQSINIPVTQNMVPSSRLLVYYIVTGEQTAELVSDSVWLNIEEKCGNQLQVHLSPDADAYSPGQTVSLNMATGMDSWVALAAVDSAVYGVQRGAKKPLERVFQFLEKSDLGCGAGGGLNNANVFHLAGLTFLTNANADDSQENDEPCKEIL
Chain of human C5b-6 (P13671 22-934 partner): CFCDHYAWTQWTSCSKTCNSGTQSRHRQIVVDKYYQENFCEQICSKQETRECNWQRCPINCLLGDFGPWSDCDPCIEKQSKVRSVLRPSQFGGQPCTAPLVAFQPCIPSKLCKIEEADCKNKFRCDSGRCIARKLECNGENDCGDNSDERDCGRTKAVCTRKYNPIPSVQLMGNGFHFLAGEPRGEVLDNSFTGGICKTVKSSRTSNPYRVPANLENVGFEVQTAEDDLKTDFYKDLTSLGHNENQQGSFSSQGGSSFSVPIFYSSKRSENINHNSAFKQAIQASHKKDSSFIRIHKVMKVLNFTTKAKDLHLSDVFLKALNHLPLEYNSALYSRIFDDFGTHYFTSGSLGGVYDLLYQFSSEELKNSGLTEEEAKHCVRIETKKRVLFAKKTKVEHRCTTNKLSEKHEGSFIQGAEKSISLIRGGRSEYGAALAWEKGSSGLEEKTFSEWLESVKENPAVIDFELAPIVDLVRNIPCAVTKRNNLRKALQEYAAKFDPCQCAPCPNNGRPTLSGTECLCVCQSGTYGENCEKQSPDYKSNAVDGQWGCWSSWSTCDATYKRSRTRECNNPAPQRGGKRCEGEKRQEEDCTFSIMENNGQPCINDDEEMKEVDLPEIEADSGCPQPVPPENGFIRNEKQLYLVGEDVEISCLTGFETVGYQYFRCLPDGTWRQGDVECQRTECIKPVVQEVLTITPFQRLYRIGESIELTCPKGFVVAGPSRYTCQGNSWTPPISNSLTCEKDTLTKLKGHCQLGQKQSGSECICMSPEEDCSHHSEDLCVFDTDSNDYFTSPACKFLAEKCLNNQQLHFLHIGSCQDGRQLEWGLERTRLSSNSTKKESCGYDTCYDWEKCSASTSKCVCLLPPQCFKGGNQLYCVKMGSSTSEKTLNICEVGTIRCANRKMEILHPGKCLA

The term IC50 denotes the midpoint of a concentration-inhibition curve. A word on the koff: it is the rate constant with which the complex falls apart. In general, kon refers to a measure of how fast the partners come together. For the sequence “SVCPDGFDWGYGCAAGSSRFCTRHDWCCYDERADSHTYGFCTGNRVENLYFQ (disulfide 3-28, 13-21, 27-41) [K8]”, the “Average Emax” value in test [1] (AP C5b ELISA, preincubated 15 min RT) is listed as 91.8%; in test [2], 71.8%. In test [1] (AP functional ELISA kit (Svar), peptide preincubated with human serum 15 min RT, AP 5% serum, putative 20 nM C5, read-out: Geomean IC50), the IC50 was determined as 29.2 nM. In addition, the koff in test [3] (read-out: mean koff, Biacore 8K, HBS-EP, summary of n=4) is 0.000295 s⁻¹; in test [3] (replicate n=1), 0.000282 s⁻¹; in test [3] (replicate n=2), 0.000384 s⁻¹; in test [3] (replicate n=3), 0.00024 s⁻¹; in test [3] (replicate n=4), 0.000277 s⁻¹. Besides, the kon in test [3] (read-out: mean kon, Biacore 8K, HBS-EP, summary of n=4) amounted to 12500 M⁻¹ s⁻¹; in test [3] (replicate n=1), 10100 M⁻¹ s⁻¹; in test [3] (replicate n=2), 12100 M⁻¹ s⁻¹; in test [3] (replicate n=4) it was 15600 M⁻¹ s⁻¹. Moreover, the Stoichiometric ratio is on record as 0.3 in test [3] (replicate n=1), 0.3 in test [3] (replicate n=2), 0.5 in test [3] (replicate n=3) and 0.3 in test [3] (replicate n=4). The Mean stoichiometric ratio in test [3] (summary of n=4) turned out to be 0.4.
